According to US7371871B2, “Inhibitors of glutaminyl cyclase” (Probiodrug AG, priority 2003, dated 2008):

Legend:
human QC [1] = target: T1, human QC (Homo sapiens, UniProt Q16769); assay: Inhibitor assay of glutaminyl cyclase (QC), determination of Ki-values; conditions: for inhibition of human QC (in words): Example 5
Method: Excitation/emission wavelengths were 320/410 nm. The assay reactions were initiated by addition of glutaminyl cyclase.
Reactions were carried out at 30° C. utilizing the NOVOStar reader for microplates (BMG labtechnologies). […] Excitation/emission wavelengths were 380/460 nm. The assay reactions were initiated by addition of glutaminyl cyclase. […] The kinetic data were evaluated using GraFit sofware.
The initial velocities were evaluated and the enzymatic activity was determined from a standard curve of ammonia under assay conditions. All samples were measured at 30° C., using either the [sequence]luor Plus or the Sunrise (both from TECAN) reader for microplates. Kinetic data was evaluated using GraFit software.
For inhibitor testing, the sample composition was the same as described above, except of the putative inhibitory compound added. […] For detailed investigations of the inhibition and determination of Ki-values, influence of the inhibitor on the auxiliary enzymes was investigated first.

human QC [2] = target: T1, human QC; conditions: Busby, W. H. J. et al. 1987; cited from earlier work

T1 sequence (Q16769 29-361): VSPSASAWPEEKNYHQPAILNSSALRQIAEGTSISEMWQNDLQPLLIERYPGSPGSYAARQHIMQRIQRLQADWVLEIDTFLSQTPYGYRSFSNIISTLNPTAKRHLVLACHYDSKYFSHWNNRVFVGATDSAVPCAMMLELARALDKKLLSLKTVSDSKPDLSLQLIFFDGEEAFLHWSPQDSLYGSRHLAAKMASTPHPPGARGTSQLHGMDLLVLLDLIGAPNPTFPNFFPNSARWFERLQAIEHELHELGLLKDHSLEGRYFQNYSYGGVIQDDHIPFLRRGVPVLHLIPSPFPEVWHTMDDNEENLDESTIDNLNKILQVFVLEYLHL

Compound	inhibition of human QC (in words) (human QC [1])	inhibition of human QC detected (human QC [2])	other results
c1ccc(-n2ccnc2)cc1 [1-phenylimidazole]	inactive	–	–
CC(=O)c1ccc(NC(=S)NCCCn2ccnc2)cc1 [Example 9]	–	–	Ki (human QC [1]): 1.79 µM
Cn1cnc(CCN)c1 [1-methyl-4-(β-amino-ethyl)-imi-dazole]	complete loss of inhibitory activity	–	–
c1cnc2c(c1)ccc1cccnc12 [1,10-phenanthroline]	–	inhibition	–
reduced 6-methylpterin	–	inhibition	–
